row,melting point [°C],SMILES
1,303 to 305,Nc1nnc(NS(=O)(=O)c2ccccc2)[nH]1
2,91 to 93,CC(C(=O)O)c1cc2ccccc2o1 (stereo not given)
3,110 to 112,CC(Cl)C(=O)NC(C)c1ccc2c(c1)OCCO2 (stereo not given)
4,218 to 220,NC1=NN(c2c(Cl)cc(Cl)cc2Cl)C(=O)C1
5,161 to 163,Cc1ccc(C)c(NC(=O)CCl)c1
6,60 to 62,Cc1nc(Cl)c2c(CC(C)C)csc2n1
7,199 to 201,Cc1cccc2c(=O)n(CCC(=O)O)cnc12
8,156 to 158,Nc1ccc(S(N)(=O)=O)cc1Cl
9,169 to 171,NS(=O)(=O)c1ccc(CC(=O)O)cc1
10,123 to 125,CC(c1ccc(Cl)cc1Cl)S(N)(=O)=O (stereo not given)
11,66 to 68,NC(=NO)c1cccc(Oc2ccccc2)c1
12,131 to 133,CC(C)(C)NS(=O)(=O)c1ccccc1CN
13,59 to 61,Fc1ccc(C2=NOC(CCl)C2)cc1 (stereo not given)
14,62 to 64,O=C(c1cccc(F)c1)c1cccc(Cl)c1
15,38 to 40,CCOC(=O)c1ccc(NC(=O)CCl)cc1
16,89 to 91,COC(=O)c1cc(N)cc(F)c1F
17,112 to 114,CNC(=O)CNc1ccccc1C
18,173 to 175,CN(CCCC(=O)O)C(=O)c1cc(S(N)(=O)=O)cn1C
19,138 to 140,COc1ccc(C(=O)CCCC(=O)O)cc1
20,130 to 132,Nc1scnc1-c1ccccc1
21,190 to 192,COc1ccc(C(=O)O)cc1OCCO
22,47 to 49,COC(=O)c1ccc(F)c(Cl)c1F

row,melting point [°C],SMILES
1,169 to 171,Cc1c(C(=O)O)cnn1-c1cccc(Br)c1
2,225 to 227,CC1(c2cccc(C(N)=O)c2)NC(=O)NC1=O (stereo not given)
3,139 to 141,Fc1cccc2ncnc(Cl)c12
4,206 to 208,Cc1nn(-c2ccccc2)c(C)c1C(=O)C(=O)O
5,239 to 241,O=C(O)c1ccc(Cl)c(S(=O)(=O)N2CCCC2)c1
6,68 to 70,N#Cc1ccc(COc2ccccc2F)cc1
7,160 to 162,NC(=O)N1CCc2ccccc21
8,172 to 174,CCOc1ccc(CN2C(=O)c3ccccc3C2=O)cc1C(=O)O
9,157 to 159,CCN(CC)S(=O)(=O)c1ccc(NCCO)c(N)c1
10,82 to 84,CC(=O)c1ccc(OCC#N)cc1
11,259 to 261,Cc1ccc(O)c(-c2nc3ccccc3[nH]2)c1
12,66 to 68,N#CCc1ccc([N+](=O)[O-])cc1Br
13,101 to 103,Cc1ccc(F)cc1NC(=O)C(C)Cl (stereo not given)
14,122 to 124,O=C(O)CCC(=O)c1ccc(Cl)s1
15,139 to 141,Cc1ccc(-c2nc(CC(=O)O)cs2)cc1
16,218 to 221,O=[N+]([O-])c1cc(Cl)cc(Cl)c1S(=O)(=O)Cl
17,135 to 137,O=C(O)C1(c2cccc(Cl)c2)CC1
18,119 to 121,CNC(=O)c1cccc(CCC(=O)O)c1
19,220 to 222,Cc1cccc2sc(NC(=O)OCC(F)(F)F)nc12
20,154 to 156,O=C(O)CSc1nnc(-c2ccc(Cl)cc2)o1
21,112 to 114,O=C(CCl)N(Cc1ccc(Cl)cc1)C12CC3CC(CC(C3)C1)C2
22,165 to 167,CC(Cl)c1nc2scc(-c3ccccc3)c2c(=O)[nH]1 (stereo not given)

row,melting point [°C],SMILES
1,145 to 147,CC(C)NCc1nc2ccccc2c(=O)[nH]1
2,155 to 158,Cc1ccc(Oc2ccc(NC(=O)CCl)cc2)cc1
3,142 to 144,Nc1ccc(Br)cc1S(=O)(=O)N1CCOCC1
4,160 to 162,CC1=CC=CC(=C2Nc3ccc(F)cc3N2C(C)C)C1=N
5,229 to 231,COc1cc(NC(C)=O)c(C(=O)O)cc1OC
6,160 to 162,COc1ccccc1Nc1nc(N)nc(CCl)n1
7,81 to 83,O=[N+]([O-])c1ccc(S(=O)(=O)Cl)cn1
8,94 to 96,Nc1nc(Cl)ccc1Cl
9,177 to 179,O=C(Nc1cccc(Cl)c1)c1ccc(Cl)nc1
10,147 to 149,O=C(O)c1cc(S(=O)(=O)Cl)c(Br)cc1F
11,169 to 171,Cc1[nH]c2ccc(C(N)=O)cc2c1C
12,254 to 256,COc1ccc(CNc2ccc3[nH]c(=O)[nH]c3c2)cc1
13,126 to 128,O=S(=O)(Cl)c1ccc(S(=O)(=O)NC2CC2)cc1
14,249 to 251,Nc1cccc(-n2ccc(C(=O)O)n2)c1
15,217 to 219,COc1ccc(C(=O)O)cc1S(=O)(=O)Cc1cc(C)no1
16,166 to 168,Oc1ccc(Cl)cc1-c1cc(-c2ccco2)[nH]n1
17,152 to 154,NNC(=O)COc1ccccc1O
18,284 to 286,CN(C)c1ccc(-c2cncc(C(=O)O)c2)cc1
19,147 to 149,CNC(=O)Nc1ccc(N)cc1
20,190 to 194,Cn1c(S)nc2ccccc21
21,236 to 238,COC(=O)c1ccc(C=CC(=O)O)cc1
22,307 to 309,O=C(O)c1c[nH]c(=O)c(Br)c1

row,melting point [°C],SMILES
1,54 to 56,O=C(CCl)c1ccc(Oc2ccccc2)cc1
2,152 to 154,CCOc1ccc(S(N)(=O)=O)cc1
3,143 to 147,Cc1ccc(NC(=O)C(Cl)c2ccccc2)cc1 (stereo not given)
4,95 to 97,CCC(C)NC(=O)c1cccc(CN)c1 (stereo not given)
5,130 to 132,CC(N)c1ccc2c(c1)NC(=O)CO2 (stereo not given)
6,58 to 60,COC(=O)C#Cc1ccc(F)cc1F
7,250 to 252,O=C(O)c1ccc(N2CCCC2=O)cc1
8,228 to 230,O=C(O)c1ccccc1-c1cncnc1
9,146 to 148,Cn1c(-c2ccccc2)c(C(=O)CCl)c2ccccc21
10,166 to 168,N#CCc1cccc(C(=O)O)c1
11,45 to 47,NS(=O)(=O)CC1CC1
12,159 to 161,COc1ccccc1NCC(=O)O
13,106 to 108,Nc1ccc(S(=O)(=O)CCO)cc1
14,179 to 181,CC(C)NC(=O)c1ccc(C(=O)O)cc1
15,101 to 103,FC(F)(F)c1cc(Cl)ccc1-n1nnnc1CCl
16,74 to 76,O=S(=O)(Cl)c1cn2c(n1)CCCC2
17,148 to 150,Cn1nnnc1Sc1ccc(Br)cc1N
18,195 to 197,N#CCC(=O)Nc1ccc(C(=O)O)cc1
19,201 to 203,O=[N+]([O-])c1ccc2nc(Br)sc2c1

# Further lines, the molecule ahead of its results:
row,SMILES,melting point [°C]
1,O=C(O)c1ccc(-c2cccc3ccccc23)s1,249 to 251
2,N#Cc1cccc(OCC(F)(F)F)n1,51 to 53
3,OCc1noc(-c2ccc(F)cc2)n1,96 to 98
4,O=C(NCC(F)(F)F)c1ccc(O)cc1,113 to 115
5,Cc1c(C(N)=O)sc2nc[nH]c(=O)c12,283 to 285
6,O=Cc1ccccc1OCc1ccncc1,65 to 67
7,C=CCn1c(=S)sc2c(=O)[nH]cnc21,216 to 218
8,Cc1nc(N2CCCC2)[nH]c(=O)c1CC(=O)O,262 to 264
9,COC(=O)c1cc(CBr)on1,59 to 61
10,CC(C)(C)OC(=O)NCCN=C=O,102 to 104
11,N#Cc1ncn(CC(=O)O)n1,96 to 98
12,Cn1c(N)c(C(=O)CC#N)c(=O)n(C)c1=O,260 to 262
13,CC1CCCC(NC(=O)NC(=O)CCl)C1C (stereo not given),131 to 133
14,O=C(O)Cn1ncc2ccccc21,188 to 190
15,O=C(O)C1(O)CCC1,39 to 41
16,Nc1nc2c(s1)CC(c1ccccc1)CC2 (stereo not given),181 to 183
17,O=[N+]([O-])c1cccnc1N1CCC(CO)CC1,71 to 73
18,O=c1[nH]c(N2CCOCC2)cc2ccccc12,212 to 214
19,Nc1ccc(OCC(F)(F)F)cc1,66 to 68
20,O=C1CCN(C2CC2)CCN1,98 to 100

row,SMILES,melting point [°C]
1,NNc1nccc(N2CCOCC2)n1,146 to 148
2,O=C(O)Cn1cc2ccccc2n1,248 to 250
3,COC(=O)c1sc2nc(CCl)nc(Cl)c2c1C,125 to 127
4,CC(C)c1nnc(N)[nH]1,108 to 110
5,OCc1cnn(-c2ccccc2)n1,70 to 72
6,O=C(O)C1CC2CCC(C1)N2C1CC1 (stereo not given),156 to 158
7,Cn1ncc2c(=O)[nH]c(Cl)nc21,268 to 270
8,NNC(=O)c1ccc(CSc2nc3ccccc3[nH]2)cc1,64 to 66
9,O=C(NO)C1CC1,127 to 129
10,N#Cc1cnc(N)cn1,186 to 188
11,C1CCc2nnc(C3CCCN3)n2CC1 (stereo not given),91 to 93
12,O=C(NCc1ccco1)OCC(F)(F)F,35 to 37
13,Nc1ccc(C(=O)NCCN2CCCC2)cc1,137 to 139
14,O=C(O)COc1ccccc1C(F)(F)F,151 to 153
15,NC(=O)CSc1nnc(S)s1,192 to 194
16,O=C(CCl)N(Cc1ccc(F)cc1)C1CCCCC1,73 to 75
17,NCc1nc(-c2cccs2)no1,141 to 143
18,COC(=O)C1=C(C)NC(C)=C(C(=O)OC)C1C(=O)O,128 to 130
19,c1ccc2c(c1)NCCN2C1CC1,58 to 60
20,CCCNc1nnc(S)s1,105 to 107

row,SMILES,melting point [°C]
1,Cc1ccsc1C(N)=S,117 to 119
2,O=C1NC2(CCCCC2)NC2=C1CCCC2,193 to 195
3,FC(F)(F)CNC(=S)N1CCOCC1,103 to 105
4,Cc1sc(=O)[nH]c1C(C)C,129 to 131
5,O=C(O)c1cccnc1SCc1cccc(Br)c1,186 to 188
6,NC(=NO)C1CCCC1,74 to 76
7,CCCCc1ccc(Nc2nnc(S)s2)cc1,124 to 126
8,Oc1ccc2c(c1)CNCC2,194 to 196
9,O=C(CCl)N1CCCC1,56 to 58
10,O=C(O)C=Cc1cn(-c2ccccc2)nc1-c1cc2ccccc2o1,225 to 227
11,CC(CN)N1CCN(c2ccccc2)CC1 (stereo not given),91 to 93
12,Cc1ccc(N2C(=O)CCC(C(=O)O)C2c2cccs2)cc1 (stereo not given),249 to 251
13,O=CC(Br)C=O,132 to 134
14,O=C(O)C1CCCS1 (stereo not given),48 to 50
15,CCOC(=O)c1cc(C)n(CC(=O)O)c1C,86 to 88
16,ClCc1nc(-c2cccs2)n[nH]1,159 to 161
17,Cc1ncsc1NC(=O)OC(C)(C)C,136 to 138
18,O=C1CC(C(F)(F)F)NCCN1 (stereo not given),136 to 138
19,CCS(=O)(=O)N1CCC(C(=O)O)CC1,143 to 145
20,O=C(O)c1csc(CCc2ccccc2)n1,132 to 134

# From a melting point compilation (Tetko et al.)
